Results published in patent US7897789B2, “Vitamin D receptor modulators” (Eli Lilly and Company, priority 2003, dated 2011).
Where “and” joins values, the source holds several entries; their conditions need not be identical. Equal values may be shown once. Read-outs that look alike come from different tables or passages of the source.

Key:
[1] = tested on: DBF mice; assay: Mouse hypercalcemia assay; conditions: oral gavage for 6 days
Description: The Mouse Hypercalcemia Assay
The Mouse Hypercalcemia Assay is a six day hypercalcemia test for toxicity and selectivity.
(4) Materials and Method for the Mouse Hypercalcemia Assay:
Weanling, virus-antibody-free, five to six weeks old female DBF mice (Harlan, Indianapolis, Ind.) are used for all the studies. Animals are allowed to acclimate to local vivarium conditions for 2 days. […] The animals then are divided into groups with 4-5 mice per group. Different doses of test compounds prepared in 10% Ethanol and 90% sesame oil are administered to mice orally via gavage for 6 days. 1α-25(OH)2D3 0.5 μg/kg/d was also given to one group of mice as the positive control. […] Raw data of group differences is assessed by analysis of variance (ANOVA) using Fisher's protected least significant difference (PLSD) where the significance level was P<0.05.

[2] = tested on: rat osteocalcin promoter; assay: OCN (osteocalcin) promoter assay; assay type: cell-based; conditions: RG-15 (ROS 17/2.8) cells
Description: 3. The OCN (Osteocalcin) Promoter Assay
The OCN Promoter Assay is an indicator and marker for osteoporosis. […] Preferred assay results are less than 50 nM.
(3) Materials and Method for the OCN Promoter Assay:
The activation of osteocalcin by VDR ligands was evaluated in a rat osteoblast-like cell line RG-15 (ROS 17/2.8) stably expressing rat osteocalcin promoter fused with luciferase reporter gene. […] Confluent RG-15 cells maintained in DMEM/F-12 medium (3:1) containing 5% FBS, 300 μg/ml G418 and at 37° C. under 5% CO2/95% air atmosphere were trypsinized (0.25% trypsin) and plated into white opaque 96-well cell culture plates (25000 cells/well). After 24 hr, cells (in DMEM/F-12 medium+2% FBS) were treated with various concentrations of compounds, dissolved in DMSO. The final DMSO concentration remained at 0.01% (v/v). After 48 hr treatment, the medium was removed, cells were lysed with 50 μl of lysis buffer (From Luciferase reporter assay system, Roche Diagnostics, Indianapolis, Ind.) and assayed for luciferase activity using the Luciferase Reporter Gene Assay kit from Boehringer Mannheim as per manufacturer's specifications.

[3] = tested on: KERtr cells; assay: Keratinocyte proliferation assay; assay type: cell-based; conditions: Homo sapiens
Description: 5. The Keratinocyte Proliferation Assay
This Assay is indicative for the treatment of psoriasis.
(5) The Keratinocyte Proliferation Assay:
KERtr cells (Human skin keratinocyte transformed with a retrovirus vector, obtained from ATCC) were plated in 96-well flat-bottomed plates (3000 cells/well) in 100 μl keratinocyte serum free medium supplemented with bovine pituitary extract in the absence of EGF (Life Technologies, Rockville, Md.) and incubated at 37° C. for two days. The cells were treated with various concentrations of VDR ligands (ten-fold serial dilution from 10,000 nM to 0.1 nM in triplicate), dissolved in 100 μl keratinocyte serum free medium supplemented with bovine pituitary extract in the absence of EGF and incubated at 37° C. for 72 hr. […] Potency values (IC50) values were determined as the concentration (nM) of compound that elicited a half-maximal response.

[4] = target: T1, VDR (Homo sapiens, UniProt P11473); assay: Caco-2 cell co-transfection assay (VDR CTF); assay type: cell-based; conditions: Caco-2 cells, pGal4-VDR-LBD luciferase co-transfection; Table 1
T1 construct: the receptor expression vector pGal4-VDR-LBD (10 ng); expressed in transfected cells; host or cells: Caco-2 cells
T1 sequence (P11473 127-423 limits assumed): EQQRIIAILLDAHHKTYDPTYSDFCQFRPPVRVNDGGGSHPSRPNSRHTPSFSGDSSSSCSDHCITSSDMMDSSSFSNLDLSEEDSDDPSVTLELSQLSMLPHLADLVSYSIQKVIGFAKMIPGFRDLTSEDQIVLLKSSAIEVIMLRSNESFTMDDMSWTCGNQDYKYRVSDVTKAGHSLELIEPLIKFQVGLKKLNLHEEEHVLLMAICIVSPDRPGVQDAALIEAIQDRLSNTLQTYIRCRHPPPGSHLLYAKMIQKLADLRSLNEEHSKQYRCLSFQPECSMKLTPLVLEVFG
Description: 2. The Caco-2 Cell Co-Transfection Assay:
The Caco-2 cell assay is an indicator for the undesirable condition of hypercalcemia. This co-transfection assay is a surrogate assay for in vivo calcemic activity of VDR ligands. […] Preferred assay results are greater than 1000 nM.
(2) Materials and Method for The Caco-2 Cell Assay:
Caco-2 cells, grown in phenol red free, DMEM (Invitrogen, Carlsbad, Calif.) containing 10% charcoal-stripped FCS (Hyclone, Logan, Utah), were transfected with Fugene 6 reagent (Roche Diagnostics, Indianapolis, Ind.). Cells (5000/well) were plated 18 h before transfection in a 96 well plate. The Cells were transfected with Gal4-responsive reporter pFRLuc (150 ng, Stratagene, La Jolla Calif.) and the receptor expression vector pGal4-VDR-LBD (10 ng), along with Fugene 6 reagent (0.2 μl/well). The DNA-Fugene complex was formed by incubating the mixture for 30 min at room temperature. The cells were transfected in triplicate for 5 h, and treated with various concentrations of VDR ligands (form 0.01 nM to 10,000 nM concentration range) 18 h post-transfection. The luciferase activity was quantified using Steady-Glo reagent kit (Promega, Madison, Wis.) as per manufacturer's specifications.

[5] = target: T2, RXR-VDR heterodimer (Homo sapiens, UniProt P11473); assay: RXR-VDR heterodimerization assay (SaOS-2 cells); assay type: cell-based; conditions: Gal4-RXR / VP16-VDR-LBD luciferase reporter, Table 1
T2 construct: Add the Gal4-RXR-DEF and VP16-VDR-LBD; expressed in transfected cells; host or cells: SaOS-2 cells
T2 sequence (P11473 127-423 limits assumed): T1 sequence (P11473 127-423 limits assumed)
T2 sequence (P19793 201-462 partner limits assumed): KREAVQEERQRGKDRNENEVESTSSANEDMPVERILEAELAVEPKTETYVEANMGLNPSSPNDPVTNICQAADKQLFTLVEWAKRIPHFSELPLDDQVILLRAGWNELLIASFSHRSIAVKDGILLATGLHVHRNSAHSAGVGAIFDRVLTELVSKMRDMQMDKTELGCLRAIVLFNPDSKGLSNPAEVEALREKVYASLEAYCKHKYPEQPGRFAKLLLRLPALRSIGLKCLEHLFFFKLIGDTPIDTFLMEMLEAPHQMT
Description: 1. The RXR-VDR HeterodimerAssay:
This assay provides the VDR activity of a test compound.
(1) Materials and Method for RXR-VDR Heterodimerization Assay:
Luciferase Assay Reagent: • Use Steady-Glo Luciferase Reagent from Promega (Cat #E2550) Consists of: a. E2533 Assay Substrate, lyopholized product and b. E2543 Assay Buffer. • Thaw at room temperature • Store Cell Harvesting Aspirate media from culture flask, rinse cells with HBSS and aspirate. Add trypsin and incubate. When cells appear detached, resuspend cells in growth media. Transfer into a new flask with fresh growth media for passaging the cells. Plate well plates and two extra plates A. Cell Count Mix the cell suspension using pipette Use Hematocytometer to count the cells Load cell suspension onto the hemocytometer chamber Count cells. […] In sterile flask add cell suspension to plating media. Mix. Add cells/well. Place the cells in the incubator. Cells should be about 75% confluent prior to transfection. DAY 2: Transfection Step 1: DNA and Media Add plain DMEM media to tubes for mixing the DNA Add the Reporter gene pFR-LUC Add the Gal4-RXR-DEF and VP16-VDR-LBD Step 2: FuGENE and Media Prepare plain DMEM media in a ubes for mixing FuGENE Add FuGENE 6 Transfection Reagent Incubate Step 3: FuGENE, DNA and Media Complex Add FuGENE Media complex from step 2 to DNA Media complex from step 1 Incubate Step 4: FuGENE, DNA and Media Complex to-well plate Add FuGENE-DNA-Media complex from step 3 to each plate Incubate. […] Day 4: Luciferase Assay Read the plates after drug treatment Remove part of media from all the wells and leave remainder Add Steady-Glo Luciferase Reagent mixture/wells Incubate Count each well using a Luminescence counter, Top Count NXT by Packard
Set a delay between plates to reduce the background.

[6] = Rattus norvegicus, comparison compounds, Table 3
[7] = comparison compounds, Table 4, read-out: Kera. Prolif. IC50
[8] = serum ionized calcium 6 hours after last dosing, Table 1
[9] = Rattus norvegicus, 48 h, 48 hr treatment, Table 1
[10] = 72 h, BrdU incorporation, Table 2, read-out: Kera. Prolif. IC50

SMILES | EC50 [4] | EC50 [2, 9] | IC50 [3, 10] | EC50 [5] | further results
CCC(CC)(c1ccc(OCC(O)CO)c(C)c1)c1ccc(OCC(O)C(C)(C)C)c(C)c1 (stereo not drawn) [BB, 3-(4-{1-Ethyl-1-[4-(2-hydroxy-3,3-dimethyl-butoxy)-3-methyl-phenyl]-propyl}-2-methyl-phenoxy)-propane-1,2-diol, reference compound] |  |  |  |  | Mouse Hypercal ([1]; comparison compounds, Table 3): 20 µg/kg/day; EC50 [2, 6]: 0.00824 µM; IC50 [3, 7]: 0.01 µM
CCC(CC)(c1ccc(OCC(=O)C(C)(C)C)c(C)c1)c1ccc(OCC(=O)C(C)(C)C)c(C)c1 [DD, reference compound] |  |  |  |  | Mouse Hypercal ([1]; comparison compounds, Table 3): 1000 µg/kg/day; EC50 [2, 6]: 0.0311 µM; IC50 [3, 7]: 1.06 µM
CCC(CC)(c1ccc(OCC(=O)C(C)(C)C)c(C)c1)c1ccc(OC[C@H](O)C(C)(C)C)c(C)c1 [EE, reference compound] |  |  |  |  | Mouse Hypercal ([1]; comparison compounds, Table 3): 1000 µg/kg/day; EC50 [2, 6]: 0.341 µM
CCC(CC)(c1ccc(OCC(=O)C(C)(C)C)c(C)c1)c1cc2ccc(C(=O)O)cc2s1 [Ex 7, 2-{1-[4-(3,3-dimethyl-2-oxo-butoxy)-3-methyl-phenyl]-1-ethyl-propyl}-benzo[b]thiophene-6-carboxylic acid] | 791 nM | 0.001 µM | 1 µM |  | Mouse Hypercal [1, 8]: >300 µg/kg/day
CCC(CC)(c1ccc(OCC(O)C(C)(C)C)c(C)c1)c1ccc2sc(C(=O)O)cc2c1 (stereo not drawn) [Ex 14, 5-{1-ethyl-1-[4-(2-hydroxy-3,3-dimethyl-butoxy)-3-methyl-phenyl]-propyl}-benzo[b]thiophene-2-carboxylic acid] | 941 nM | 0.006 µM |  |  | 
CCC(CC)(c1ccc(OCC(=O)C(C)(C)C)c(C)c1)c1ccc2sc(C(=O)NCC(=O)O)cc2c1 [Ex 15, [(5-{1-[4-(3,3-dimethyl-2-oxo-butoxy)-3-methyl-phenyl]-1-ethyl-propyl}-benzo[b]thiophene-2-carbonyl)-amino]-acetic acid] |  |  |  | 0.539 µM and 0.063 µM | Mouse Hypercal [1, 8]: <1000 µg/kg/day
CCC(CC)(c1ccc(OCC(O)C(C)(C)C)c(C)c1)c1ccc2sc(C(=O)NCC(=O)O)cc2c1 (stereo not drawn) [Ex 16, [(5-{1-ethyl-1-[4-(2-hydroxy-3,3-dimethyl-butoxy)-3-methyl-phenyl]-propyl}-benzo[b]thiophene-2-carbonyl)-amino]-acetic acid] | 938 nM |  | 0.384 µM | 0.254 µM and 0.108 µM | 
CCC(O)(CC)COc1ccc(C(CC)(CC)c2cc3ccc(C(=O)O)cc3s2)cc1C [Ex 22, 2-{1-Ethyl-1-[4-(2-ethyl-2-hydroxy-butoxy)-3-methyl-phenyl]-propyl}benzo[b]thiophene-6-carboxylic acid] | 1060 nM |  | 0.154 µM | 0.458 µM and 0.139 µM | 
CCOC(=O)c1cc2cc(C(CC)(CC)c3ccc(OCC4(C(C)(C)C)OCCO4)c(C)c3)ccc2s1 [Ex 23, 5-{1-[4-(2-tert-Butyl-[1,3]dioxolan-2-ylmethoxy)-3-methyl-phenyl]-1-ethyl-propyl}-benzo[b]thiophene-2-carboxylic acid ethyl ester] |  | 0.161 µM |  |  | 
CCC(CC)(c1ccc(OCC(=O)C(C)(C)C)c(C)c1)c1cc2cc(OS(C)(=O)=O)ccc2s1 [Ex 24, methanesulfonic acid 2-{1-[4-(3,3-dimethyl-2-oxo-butoxy)-3-methyl-phenyl]-1-ethyl-propyl}-benzo[b]thiophen-5-yl ester] |  | 0.215 µM | 0.232 µM | 0.695 µM | 
CCC(CC)(c1ccc(OCC(O)C(C)(C)C)c(C)c1)c1ccc2cc(C(=O)N(C)C)sc2c1 (stereo not drawn) [Ex. 4, 6-{1-ethyl-1-[4-(2-hydroxy-3,3-dimethyl-butoxy)-3-methyl-phenyl]-propyl}-benzo[b]thiophene-2-carboxylic acid dimethylamide] | 555 nM | 0.02 µM |  |  | EC50 ([2]; 48 hr treatment, Table 1): 0.015 µM
CCC(CC)(c1ccc(OCC(=O)C(C)(C)C)c(C)c1)c1cc2ccc(C(=O)N(C)C)cc2s1 [Ex. 9, 2-{1-[4-(3,3-Dimethyl-2-oxo-butoxy)-3-methyl-phenyl]-1-ethyl-propyl}-benzo[b]thiophene-6-carboxylic acid dimethylamide] | 1270 nM | 0.041 µM | 1 µM |  | EC50 ([2]; 48 hr treatment, Table 1): 0.035 µM
CCC(CC)(c1ccc(OCC(O)C(C)(C)C)c(C)c1)c1cc2ccc(C(=O)N(C)C)cc2s1 (stereo not drawn) [Ex. 10, 2-{1-Ethyl-1-[4-(2-hydroxy-3,3-dimethyl-butoxy)-3-methyl-phenyl]-propyl}-benzo[b]thiophene-6-carboxylic acid dimethylamide] | 690 nM | 0.024 µM | 0.573 µM | 0.323 µM | EC50 ([2]; 48 hr treatment, Table 1): 0.018 µM
CCC(CC)(c1ccc(OCC(O)C(C)(C)C)c(C)c1)c1cc2ccc(C(=O)NCC(=O)O)cc2s1 (stereo not drawn) [Ex. 12, [(2-{1-Ethyl-1-[4-(2-hydroxy-3,3-dimethyl-butoxy)-3-methyl-phenyl]-propyl}-benzo[b]thiophene-6-carbonyl)-amino]-acetic acid] | 137 nM | 0.0003 µM | 0.001 µM | 0.019 µM and 0.002 µM | 
CCC(CC)(c1ccc(OCC(=O)C(C)(C)C)c(C)c1)c1ccc2sc(C(=O)O)cc2c1 [Ex. 13, 5-{1-[4-(3,3-dimethyl-2-oxo-butoxy)-3-methyl-phenyl]-1-ethyl-propyl}-benzo[b]thiophene-2-carboxylic acid] | 994 nM |  |  | 0.488 µM and 0.111 µM | Mouse Hypercal [1, 8]: >300 µg/kg/day
